The results in this text go back to patent publication US20250268904A1 (priority 2020, published 2025).

pEC50, pIC50, pKd: −log10 of the molar value.

The subject of series [1] is U2OS osteosarcoma cells. Nature of the series: Induction of vacuoles (enlarged lysosomes). Format: cell-based. The note with it: within 4 hours. The procedure:
(§1) The WX8-family of PIKfyve specific inhibitors disrupts multiple events in lysosome homeostasis (Table 1): • prevent lysosome fission without preventing homotypic lysosome fusion, thereby causing cytoplasmic vacuolization (enlarged lysosomes). Cytoplasmic vacuolization is evident within 30 minutes and reversible for up to 24-48 hours (1Vacuoles). • inhibit trafficking of molecules into lysosomes, thereby reducing lysosomal activity • inhibit maturation of lysosome cathepsins, thereby reducing lysosomal activity • disrupt endosome trafficking, thereby reducing cellular uptake of extracellular materials • inhibit cell proliferation (^3Proliferation) • disrupt autophagy by preventing heterotypic fusion of lysosomes with autophagosomes (^2LC3-II), thereby inducing cell death in autophagy-dependent cancer cells (^4Viability) under conditions where non-malignant cells remain viable.

The subject of series [2] is U2OS osteosarcoma cells. Nature of the series: LC3-II (autophagosome) accumulation. The series is classed as cell-based. The note with it: Homo sapiens, within 4 to 8 hours, read-out: Accumulate LC3-II EC50. As for the experimental part: as §1
The test system of series [3] is U2OS osteosarcoma cells. Nature of the series: Suppression of cell proliferation. The series is classed as cell-based. The settings on record: Homo sapiens, 72 h, within 3 days, read-out: Inhibit Proliferation IC50. As for the experimental part: as §1
In series [4] the test system is U2OS osteosarcoma cells. The series is described as follows: Reduction of cellular ATP levels (viability). The series is classed as cell-based. The note with it: Homo sapiens, 96 h, within 4 days, read-out: Inhibit Viability IC50 (cellular ATP levels). The procedure:
as §1

Series [5] concerns Vero E6 cells. The series is classed as cell-based, African Green monkey.
Series [6] deals with SARS-CoV-2.
Series [7] is described as follows: in vitro. The note with it: African green monkey.
In series [8] the test system is SARS-CoV-2. Nature of the series: microbe, parasite or virus in culture. The note with it: Severe acute respiratory syndrome coronavirus 2, Vero C1008, read-out: IC50 inhibition of SARS-CoV-2 infection.
For series [9], the system named is Vero E6 cells. Nature of the series: Vero E6 cell proliferation (attached cell count). Format: cell-based, African Green monkey. The settings on record: Chlorocebus sabaeus, Vero C1008, 72 h; cultured for 3 days. As for the experimental part: (§2) FIG. 4. […] Vero E6 cells were plated at low density and then cultured overnight before adding WX8 at the concentrations indicated and then cultured for 3 days. (A) Attached cells were collected by trypsinization and counted. The fraction of cells (%) as well as the change in the total number of cells (fold change) relative to cells cultured in the presence of the WX8 vehicle control are given. (B) Attached and unattached cells were combined and stained with annexin-V to identify cells undergoing apoptosis and propidium iodide (PI) to identify dead cells that were permeable to a nuclear DNA stain. The cells were then analyzed by fluorescence activated cell sorting. Quadrant (Q) Q3 contained the unstained (live) cells. Q1 contained cells stained only with annexin-V (early apoptosis). Q2 contained cells stained with both annexin-V and PI (apoptotic dead cells). Q4 contained cells stained only with PI (necrotic dead cells). (C) Data were normalized to the fraction of live cells. Error bars indicate ±SEM. (D) Cells were first permeabilized, stained with PI and then analyzed by fluorescence activated cell sorting in order to quantify the fraction of cells with <2N DNA content. (E) The fraction of cells with <2N DNA content ±SEM.
(§3) WX8 inhibited Vero E6 cell proliferation with an IC50 of 0.4 μM (FIG. 4A). However, 100-fold higher concentrations of WX8 were required to induce cell death. […]

Series [10] relates to Vero E6 cells. The series is described as follows: Vero E6 cell death, annexin-V / propidium iodide FACS. Format: cell-based, African Green monkey. The settings on record: Chlorocebus sabaeus, Vero C1008, 72 h; 3 days, annexin-V and propidium iodide staining; read-out: IC50 Vero E6 cell death (fraction of live cells). The procedure:
as §2, §3

The subject of series [11] is Vero E6 cells. Nature of the series: Vero E6 loss of cellular DNA (PI FACS). The note with it: Chlorocebus sabaeus, Vero C1008, 72 h, read-out: IP50 for loss of cellular DNA. The series is classed as cell-based, African Green monkey. The procedure:
as §2, §3

Series [12] deals with 'autophagy-addicted' human melanoma cells. Format: cell-based.
Series [13] deals with PIKfyve (Homo sapiens, UniProt Q9Y2I7). The series is described as follows: biochemical.
Method: (§4) Each kinase was tagged with a unique DNA sequence that allowed the amount of protein bound to the solid support to be quantified by PCR. The mean equilibrium dissociation constant (Kd) for each compound was then determined for the top three hits (PIKFYVE, PIP4K2C and MTOR) from two independent titration curves. A dissociation constant (Kd) was calculated by measuring the amount of kinase captured on the solid support as a function of the test compound concentration (nM) on a log10 scale. Mean Kd values (±range) are given for each WX8-family member. The ratios of PIP4K2C/PIKfyve and mTOR/PIKfyve indicate the relative specificity of each compound for PIKfyve.
In series [14] the target is T1, PIP4K2C (Homo sapiens, UniProt Q8TBX8).
T1 sequence (Q8TBX8 1-421): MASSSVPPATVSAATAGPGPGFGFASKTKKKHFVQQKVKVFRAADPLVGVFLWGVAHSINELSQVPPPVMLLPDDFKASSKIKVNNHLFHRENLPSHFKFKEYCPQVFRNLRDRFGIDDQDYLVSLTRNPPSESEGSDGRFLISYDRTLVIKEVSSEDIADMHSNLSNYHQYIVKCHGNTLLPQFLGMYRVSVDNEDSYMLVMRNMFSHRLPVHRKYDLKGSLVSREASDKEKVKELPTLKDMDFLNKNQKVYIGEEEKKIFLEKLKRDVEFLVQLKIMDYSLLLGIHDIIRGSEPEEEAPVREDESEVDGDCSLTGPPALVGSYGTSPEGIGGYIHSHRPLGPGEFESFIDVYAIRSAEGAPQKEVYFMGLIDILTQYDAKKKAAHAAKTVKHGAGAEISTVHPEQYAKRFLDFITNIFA
The settings on record: ratio of Kd values.
Method: as §4

Chain of PIKfyve (Q9Y2I7 whole entry): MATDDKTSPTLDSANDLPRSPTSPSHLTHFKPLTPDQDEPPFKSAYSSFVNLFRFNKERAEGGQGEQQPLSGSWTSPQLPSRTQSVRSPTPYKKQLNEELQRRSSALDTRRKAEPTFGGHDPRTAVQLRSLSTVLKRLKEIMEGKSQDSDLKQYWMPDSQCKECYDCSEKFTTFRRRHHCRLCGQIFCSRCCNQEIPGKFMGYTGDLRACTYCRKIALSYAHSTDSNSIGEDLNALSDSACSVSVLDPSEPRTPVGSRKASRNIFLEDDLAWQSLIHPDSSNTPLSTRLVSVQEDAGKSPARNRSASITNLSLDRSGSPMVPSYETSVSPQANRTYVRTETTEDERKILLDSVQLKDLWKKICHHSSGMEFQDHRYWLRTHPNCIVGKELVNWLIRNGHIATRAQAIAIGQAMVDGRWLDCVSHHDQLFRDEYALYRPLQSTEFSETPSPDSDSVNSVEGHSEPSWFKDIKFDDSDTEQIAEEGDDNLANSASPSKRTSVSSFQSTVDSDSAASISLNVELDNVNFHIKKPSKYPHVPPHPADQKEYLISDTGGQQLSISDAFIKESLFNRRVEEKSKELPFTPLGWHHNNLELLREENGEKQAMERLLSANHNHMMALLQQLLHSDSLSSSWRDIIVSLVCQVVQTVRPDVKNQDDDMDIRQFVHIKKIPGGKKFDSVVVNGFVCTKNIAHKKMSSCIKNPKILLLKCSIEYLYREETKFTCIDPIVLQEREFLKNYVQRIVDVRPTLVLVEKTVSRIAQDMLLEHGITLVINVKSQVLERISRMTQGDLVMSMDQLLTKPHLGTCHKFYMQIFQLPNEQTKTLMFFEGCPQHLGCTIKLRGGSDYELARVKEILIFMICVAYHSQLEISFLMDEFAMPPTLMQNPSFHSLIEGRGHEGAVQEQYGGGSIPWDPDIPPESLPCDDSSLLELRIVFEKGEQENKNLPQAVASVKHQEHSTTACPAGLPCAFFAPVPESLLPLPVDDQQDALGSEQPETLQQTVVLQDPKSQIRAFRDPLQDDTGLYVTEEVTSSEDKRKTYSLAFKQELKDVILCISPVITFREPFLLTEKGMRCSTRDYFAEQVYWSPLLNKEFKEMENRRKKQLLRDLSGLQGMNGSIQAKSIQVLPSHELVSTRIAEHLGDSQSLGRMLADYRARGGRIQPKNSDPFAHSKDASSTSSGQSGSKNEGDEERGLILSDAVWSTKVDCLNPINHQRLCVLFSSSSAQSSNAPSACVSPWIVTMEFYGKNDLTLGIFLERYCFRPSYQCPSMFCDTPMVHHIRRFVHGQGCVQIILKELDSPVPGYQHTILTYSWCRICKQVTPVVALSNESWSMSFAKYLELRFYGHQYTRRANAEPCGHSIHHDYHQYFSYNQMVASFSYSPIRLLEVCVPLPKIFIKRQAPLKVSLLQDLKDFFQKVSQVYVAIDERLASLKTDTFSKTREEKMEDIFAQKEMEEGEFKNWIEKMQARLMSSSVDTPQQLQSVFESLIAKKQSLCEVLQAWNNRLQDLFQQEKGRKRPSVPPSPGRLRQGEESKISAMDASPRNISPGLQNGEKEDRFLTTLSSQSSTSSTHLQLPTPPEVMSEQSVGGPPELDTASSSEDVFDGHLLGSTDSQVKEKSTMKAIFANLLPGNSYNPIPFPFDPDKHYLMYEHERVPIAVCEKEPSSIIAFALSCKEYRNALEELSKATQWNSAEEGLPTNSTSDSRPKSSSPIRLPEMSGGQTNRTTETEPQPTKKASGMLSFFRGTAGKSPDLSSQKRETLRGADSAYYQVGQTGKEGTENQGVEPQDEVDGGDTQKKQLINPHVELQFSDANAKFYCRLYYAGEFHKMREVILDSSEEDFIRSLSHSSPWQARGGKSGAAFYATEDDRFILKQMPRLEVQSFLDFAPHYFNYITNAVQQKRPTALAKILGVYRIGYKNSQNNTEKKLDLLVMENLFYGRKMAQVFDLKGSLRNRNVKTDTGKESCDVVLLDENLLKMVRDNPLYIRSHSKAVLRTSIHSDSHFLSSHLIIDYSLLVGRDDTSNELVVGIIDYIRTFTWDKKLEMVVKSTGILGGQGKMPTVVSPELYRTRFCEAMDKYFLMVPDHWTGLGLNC

What is called pEC50 is the negative decadic logarithm of the EC50, by convention in mol/L. For the compound `C(=N\Nc1cc(N2CCOCC2)nc(N2CCOCC2)n1)/c1ccccc1` [WWL], the “Accumulate Vacuoles EC” value in series [1] came out at 0.2 µM. In addition, the negative logarithm of the EC50 (pEC50) in series [2] was 5.19. Further, the pIC50 in [3] was 5.80; in [4], 5.59; in [8], 5.61. Besides, the “accumulation of cytoplasmic vacuoles” value in series [5] was “rapidly accumulated cytoplasmic vacuoles”. Also, the CC50/IC50 in series [6] was found to be 16. This compound gave a CC50 in series [7] of 40300 nM.

One may read the pKd as −log10 of the Kd, conventionally taken in molar units. `C1=Nc2ccccc2/C1=C/NNc1nc(Nc2ccccc2)nc(N2CCOCC2)n1` [WX8]: the “Accumulate Vacuoles EC” value in series [1] is 0.01 µM. Besides, in [2], the negative-log EC50 (pEC50) was 6.52. Further, the pIC50 in [3] was 6.70; in series [4] it was 6.46; in series [9], 6.40; in [10], 4.15; in series [11] it was 4.22; in series [8], 6.76. Further, the “accumulation of cytoplasmic vacuoles” value in series [5] is “rapidly accumulated cytoplasmic vacuoles”. Also, the “lethality relative to chloroquine” value in series [12] stood at 100 times. The same compound gave a CC50/IC50 in series [6] of 245. Moreover, in series [7], the CC50 came to 42300 nM. Further, in series [13], the pKd is more than 9.00. The “affinity for PIKfyve relative to PIP4K2C (PIP4K2C/PIKfyve)” value in series [14] is 366 fold.

On to `CCc1ccc(Nc2nc(N3CCOCC3)nc(N3CCOCC3)n2)cc1` [XB6], for which the “Accumulate Vacuoles EC” value in [1] came out at 2 µM. The pEC50 in [2] was less than 5.00. Also, the values for the pIC50 in series [3] and in [4] were 5.13 and 5.28, respectively.

With `Fc1ccc(Nc2nc(N3CCOCC3)nc(N3CCOCC3)n2)cc1Cl` [XBA], the “Accumulate Vacuoles EC” value in series [1] was determined as 4 µM. The negative logarithm of the EC50 (pEC50) in series [2] is 5.12. Besides, the pIC50 in series [3] is 5.40; in [4], less than 5.00.

`Cc1cccc(/C=N/Nc2cc(N3CCOCC3)nc(N3CCOCC3)n2)c1` [NDF]: the “Accumulate Vacuoles EC” value in [1] was 0.1 µM. In [2], the pEC50 was 5.82. Also, the pIC50 in series [3] was 5.96; in series [4], 6.38; in [8] it was 6.30. For the same compound, the “accumulation of cytoplasmic vacuoles” value in series [5] is on record as “rapidly accumulated cytoplasmic vacuoles”. Moreover, the CC50/IC50 in series [6] is given as 52. In [7], this compound came in with a CC50 of 26300 nM.

In the case of `Cc1cccc(/C=N/Nc2cc(N3CCOCC3)nc(OCCc3ccccn3)n2)c1` [Apilimod, reference compound], the “accumulation of cytoplasmic vacuoles” value in series [5] was “rapidly accumulated cytoplasmic vacuoles”. Besides, the CC50/IC50 in series [6] is given as 22,027. The compound further yielded a CC50 in [7] of 33000 nM. Also, the pIC50 in series [8] was 8.82.
